The test is described as follows: Effective concentration for antagonistic activity by inhibition of T-tropic strain of HIV-1 through its specific binding to a chemokine receptor.

pEC50: −log10 of the molar value. Where a SMILES comes first, the peptide text is derived from it. Bridges are numbered along the chain shown (N, C = ends). [ ]: non-standard residue; d: D form. Gly(2-naphthyl) = N[C@H](C(=O)O)c1ccc2ccccc2c1; Cit = NC(=O)NCCC[C@H](N)C(=O)O

In general, pEC50 refers to −log10 of the EC50, conventionally taken in molar units. A lower pEC50 goes with a large EC50.

Consider `NCCCC[C@@H]1NC(=O)[C@H](CCCN=C(N)N)NC(=O)[C@H](Cc2ccc(O)cc2)NC(=O)[C@@H](NC(=O)[C@@H](NC(=O)[C@H](CCCN=C(N)N)NC(=O)[C@@H](N)CCCN=C(N)N)c2ccc3ccccc3c2)CSSC[C@@H](C(=O)N[C@@H](CCCN=C(N)N)C(=O)O)NC(=O)[C@H](CCCNC(N)=O)NC(=O)[C@H](CCCN=C(N)N)NC(=O)[C@H](Cc2ccc(O)cc2)NC(=O)[C@@H]2CCCN2C(=O)[C@@H](CCCCN)NC1=O` [Compound T140] (H-RR[Gly(2-naphthyl)]CYRK[dK]PYR[Cit]CR-OH; disulfide 4-13), for which the pEC50 was 9.74.

These data come from BindingDB's records for doi:10.1016/s0960-894x(00)00664-8 (Kyoto University, 2001).
